Data from patent US20250101041A1, “POSITIVE ALLOSTERIC MODULATORS OF THE MUSCARINIC ACETYLCHOLINE RECEPTOR M4” (Vanderbilt University, priority 2022, published 2025).

Biological target: T1, human mAChR M4 (Homo sapiens, UniProt P08173)
T1 construct: expressed in transfected cells; host or cells: CHO-K1 (American Type Culture Collection), stably expressing hM4 and Gqi5
T1 sequence (P08173 1-479): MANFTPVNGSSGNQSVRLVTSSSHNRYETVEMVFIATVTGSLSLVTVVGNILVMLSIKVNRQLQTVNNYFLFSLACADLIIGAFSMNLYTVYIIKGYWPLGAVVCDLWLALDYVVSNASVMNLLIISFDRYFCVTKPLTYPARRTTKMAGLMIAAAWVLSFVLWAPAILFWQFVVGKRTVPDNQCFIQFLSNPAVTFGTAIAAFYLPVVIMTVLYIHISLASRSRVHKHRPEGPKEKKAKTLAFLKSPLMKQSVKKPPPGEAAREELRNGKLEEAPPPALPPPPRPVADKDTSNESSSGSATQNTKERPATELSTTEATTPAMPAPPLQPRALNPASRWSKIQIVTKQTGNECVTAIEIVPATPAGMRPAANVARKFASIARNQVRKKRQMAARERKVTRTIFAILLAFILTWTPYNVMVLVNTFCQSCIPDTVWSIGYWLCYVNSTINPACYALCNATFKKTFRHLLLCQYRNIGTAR
Experiment: mAChR M4 cell-based functional assay: calcium mobilization (Fluo-4, FDSS), potentiation of EC20 acetylcholine response in hM4-Gqi5 CHO-K1 cells
Conditions: human M4; for Emax at 30 µM: CHO-K1, % ACh maximum at 30 μM; for EC50: potentiation of EC20 acetylcholine response, calcium mobilization
Protocol: Human and rat M4 cDNAs, along with the chimeric G protein Gqi5, were transfected into Chinese hamster ovary (CHO-K1) cells purchased from the American Type Culture Collection using Lipofectamine2000. hM4-Gqi5 cells were grown in Ham's F-12 medium containing 10% heat-inactivated fetal bovine serum (FBS), 20 mM HEPES, 50 μg/mL G418 sulfate, and 500 μg/mL Hygromycin B. rM4-Gqi5 cells were grown in DMEM containing 10% heat-inactivated FBS, 20 mM HEPES, 400 μg/mL G418 sulfate, and 500 μg/mL Hygromycin B.
For high throughput measurement of agonist-evoked increases in intracellular calcium, CHO-K1 cells stably expressing muscarinic receptors were plated in growth medium lacking G418 and hygromycin at 15,000 cells/20 μL/well in Greiner 384-well black-walled, tissue culture (TC)-treated, clear-bottom plates (VWR). Cells were incubated overnight at 37° C. and 5% CO2. The next day, cells were washed using an ELX 405 (BioTek) with assay buffer; the final volume was then aspirated to 20 μL. Next, 20 μL of a […] of Fluo-4/acetoxymethyl ester (Invitrogen, Carlsbad, CA), prepared as a 2.3 mM stock in DMSO and mixed in a 1:1 ratio with 10% (w/v) Pluronic F-127 and diluted in assay buffer, was added to the wells and the cell plates were incubated for 50 min at 37° C. and 5% CO2. Dye was removed by washing with the ELX 405 and the final volume was aspirated to 20 μL. Compound master plates were formatted in an 11 point concentration-response curve (CRC) format (1:3 dilutions) in 100% DMSO with a starting concentration of 10 mM using a BRAVO liquid handler (Agilent). Test compound CRCs were then transferred to daughter plates (240 nL) using the Echo acoustic plate reformatter (Labcyte, Sunnyvale, CA) and then diluted into assay buffer (40 μL) to a 2× stock using a Thermo Fisher Combi (Thermo Fisher Scientific, Waltham, MA).
Calcium flux was measured using the Functional Drug Screening System (FDSS) 6000 or 7000 (Hamamatsu Corporation, Tokyo, Japan) as an increase in the fluorescent static ratio. Compounds were applied to cells (20 μL, 2X) using the automated system of the FDSS at 2-4 seconds into the protocol and the data were collected at 1 Hz. At 144 seconds, 10 μL of an EC20 concentration of the muscarinic receptor agonist acetylcholine was added (5×), followed by the addition of 12 μL of an […] concentration of acetylcholine at the 230 second time point (5×). Agonist activity was analyzed as a concentration-dependent increase in calcium mobilization upon compound addition. Positive allosteric modulator activity was analyzed as a concentration-dependent increase in the EC20 acetylcholine response. Antagonist activity was analyzed as a concentration-dependent decrease in the EC20 acetylcholine response. Concentration-response curves were generated using a four-parameter logistical equation in XLFit curve fitting software (IDBS, Bridgewater, NJ) for Excel (Microsoft, Redmond, WA) or Prism (GraphPad Software, Inc., San Diego, CA).
Compounds were synthesized as described above. Activity (EC50 and Emax) was determined in the mAChR M4 cell-based functional assay as described above and the data are shown in Table 4. The compound number corresponds to the compound numbers used in Tables 1-3.

## Cc1c(N2CCc3ncc(-c4ccccc4C(C)C)cc3C2)nn2c(=O)ccnc2c1C [Compound 1-340, 7-(3-(2-isopropylphenyl)-7,8-dihydro-1,6-naphthyridin-6(5H)-yl)-8,9-dimethyl-4H-pyrimido[1,2-b]pyridazin-4-one]
  Emax at 30 µM: 48%
  EC50: 503 nM

## Cc1cc(=O)n2nc(N3CCc4ncc(-c5ccnn5C)cc4C3)c(C)cc2n1 [Compound 1-29, 2,8-dimethyl-7-(3-(1-methyl-1H-pyrazol-5-yl)-7,8-dihydro-1,6-naphthyridin-6(5H)-yl)-4H-pyrimido[1,2-b]pyridazin-4-one]
  Emax at 30 µM: 85%
  EC50: 146 nM

## COc1cc(C)c(-c2cnc3c(c2)CN(c2nn4c(=O)cc(C)nc4c(C)c2C)CC3)cn1 [Compound 1-198, 7-(3-(6-methoxy-4-methylpyridin-3-yl)-7,8-dihydro-1,6-naphthyridin-6(5H)-yl)-2,8,9-trimethyl-4H-pyrimido[1,2-b]pyridazin-4-one]
  Emax at 30 µM: 83%
  EC50: 1920 nM

## COc1cnccc1Nc1cnc2c(c1)CN(c1nn3c(=O)ccnc3cc1C)CC2 [Compound 2-112, 7-(3-((3-methoxypyridin-4-yl)amino)-7,8-dihydro-1,6-naphthyridin-6(5H)-yl)-8-methyl-4H-pyrimido[1,2-b]pyridazin-4-one]
  Emax at 30 µM: 64%
  EC50: 2710 nM

## Cc1cc2nc(C)c(Cl)c(=O)n2nc1N1CCc2ncc(Nc3ccncc3F)cc2C1 [Compound 2-161, 3-chloro-7-(3-((3-fluoropyridin-4-yl)amino)-7,8-dihydro-1,6-naphthyridin-6(5H)-yl)-2,8-dimethyl-4H-pyrimido[1,2-b]pyridazin-4-one]
  Emax at 30 µM: 95%
  EC50: 1 nM

## Cc1ccc(-c2cnc3c(c2)CN(c2nn4c(=O)cc(C)nc4cc2C)CC3)cn1 [Compound 1-30, 2,8-dimethyl-7-(3-(6-methylpyridin-3-yl)-7,8-dihydro-1,6-naphthyridin-6(5H)-yl)-4H-pyrimido[1,2-b]pyridazin-4-one]
  Emax at 30 µM: 69%
  EC50: 127 nM

## Cc1cc(=O)n2nc(N3CCc4ncc(-c5ccccc5OC(F)(F)F)cc4C3)c(C)cc2n1 [Compound 1-254, 2,8-dimethyl-7-(3-(2-(trifluoromethoxy)phenyl)-7,8-dihydro-1,6-naphthyridin-6(5H)-yl)-4H-pyrimido[1,2-b]pyridazin-4-one]
  Emax at 30 µM: 48%
  EC50: 1370 nM

## Cc1cc2nc(C)c(C)c(=O)n2nc1N1CCc2ncc(Nc3ccncc3F)cc2C1 [Compound 2-158, 7-(3-((3-fluoropyridin-4-yl)amino)-7,8-dihydro-1,6-naphthyridin-6(5H)-yl)-2,3,8-trimethyl-4H-pyrimido[1,2-b]pyridazin-4-one]
  Emax at 30 µM: 91%
  EC50: 1 nM

## Cc1cc(C(F)(F)F)ncc1-c1cnc2c(c1)CN(c1nn3c(=O)ccnc3cc1C)CC2 [Compound 1-400, 8-methyl-7-(3-(4-methyl-6-(trifluoromethyl)pyridin-3-yl)-7,8-dihydro-1,6-naphthyridin-6(5H)-yl)-4H-pyrimido[1,2-b] pyridazin-4-one]
  Emax at 30 µM: 95%
  EC50: 433 nM

## Cc1cc2nccc(=O)n2nc1N1CCc2ncc(-c3cnn(C)c3C)cc2C1 [Compound 1-408, 7-(3-(1,5-dimethyl-1H-pyrazol-4-yl)-7,8-dihydro-1,6-naphthyridin-6(5H)-yl)-8-methyl-4H-pyrimido[1,2-b]pyridazin-4-one]
  Emax at 30 µM: 90%
  EC50: 257 nM

## Cc1cc2nccc(=O)n2nc1N1CCc2ncc(N3CCOC(c4ccc(F)cc4)C3)cc2C1 (stereo not drawn) [Compound 2-64, 7-(3-(2-(4-fluorophenyl)morpholino)-7,8-dihydro-1,6-naphthyridin-6(5H)-yl)-8-methyl-4H-pyrimido[1,2-b]pyridazin-4-one]
  Emax at 30 µM: 84%
  EC50: 398 nM

## Cc1cc2nccc(=O)n2nc1N1CCc2ncc(-c3cn(C)nc3C(F)(F)F)cc2C1 [Compound 1-411, 8-methyl-7-(3-(1-methyl-3-(trifluoromethyl)-1H-pyrazol-4-yl)-7,8-dihydro-1,6-naphthyridin-6(5H)-yl)-4H-pyrimido[1,2-b]pyridazin-4-one]
  Emax at 30 µM: 82%
  EC50: 1240 nM

## Cc1c(N2CCc3ncc(-c4cnn(C5CCOCC5)c4)cc3C2)nn2c(=O)ccnc2c1C [Compound 1-192, 8,9-dimethyl-7-(3-(1-(tetrahydro-2H-pyran-4-yl)-1H-pyrazol-4-yl)-7,8-dihydro-1,6-naphthyridin-6(5H)-yl)-4H-pyrimido[1,2-b]pyridazin-4-one]
  Emax at 30 µM: 64%
  EC50: 139 nM

## COCc1cc(=O)n2nc(N3CCc4ncc(C(F)(F)F)cc4C3)c(C)cc2n1 [Compound 1-313, 2-(methoxymethyl)-8-methyl-7-(3-(trifluoromethyl)-7,8-dihydro-1,6-naphthyridin-6(5H)-yl)-4H-pyrimido[1,2-b]pyridazin-4-one]
  Emax at 30 µM: 96%
  EC50: 503 nM

## Cc1cc(=O)n2nc(N3CCc4ncc(-c5cnc(C)s5)cc4C3)c(C)cc2n1 [Compound 1-31, 2,8-dimethyl-7-(3-(2-methylthiazol-5-yl)-7,8-dihydro-1,6-naphthyridin-6(5H)-yl)-4H-pyrimido[1,2-b]pyridazin-4-one]
  Emax at 30 µM: 83%
  EC50: 104 nM

## COc1cncc(Nc2cnc3c(c2)CN(c2nn4c(=O)ccnc4cc2C)CC3)c1 [Compound 2-137, 7-(3-((5-methoxypyridin-3-yl)amino)-7,8-dihydro-1,6-naphthyridin-6(5H)-yl)-8-methyl-4H-pyrimido[1,2-b]pyridazin-4-one]
  Emax at 30 µM: 98%
  EC50: 324 nM

## Cc1c(N2CCc3ncc(-c4cccc(F)c4)cc3C2)nn2c(=O)cc(C(F)F)nc2c1C [Compound 1-306, 2-(difluoromethyl)-7-(3-(3-fluorophenyl)-7,8-dihydro-1,6-naphthyridin-6(5H)-yl)-8,9-dimethyl-4H-pyrimido[1,2-b]pyridazin-4-one]
  Emax at 30 µM: 89%
  EC50: 451 nM

## Cc1cc2nccc(=O)n2nc1N1CCc2ncc(NCc3cscn3)cc2C1 [Compound 2-130, 8-methyl-7-(3-((thiazol-4-ylmethyl)amino)-7,8-dihydro-1,6-naphthyridin-6(5H)-yl)-4H-pyrimido[1,2-b]pyridazin-4-one]
  Emax at 30 µM: 87%
  EC50: 508 nM

## Cc1cc(=O)n2nc(N3CCc4ncc(-c5ccc6nccn6c5)cc4C3)c(C)c(C)c2n1 [Compound 1-133, 7-(3-(imidazo[1,2-a]pyridin-6-yl)-7,8-dihydro-1,6-naphthyridin-6(5H)-yl)-2,8,9-trimethyl-4H-pyrimido[1,2-b]pyridazin-4-one]
  Emax at 30 µM: 79%
  EC50: 556 nM

## Cc1cc2nccc(=O)n2nc1N1CCc2ncc(-c3sccc3C)cc2C1 [Compound 1-409, 8-methyl-7-(3-(3-methylthiophen-2-yl)-7,8-dihydro-1,6-naphthyridin-6(5H)-yl)-4H-pyrimido[1,2-b]pyridazin-4-one]
  Emax at 30 µM: 95%
  EC50: 48 nM

## Cc1cc(=O)n2nc(N3CCc4ncc(-c5cn6ccnc6cc5C)cc4C3)c(C)cc2n1 [Compound 1-217, 2,8-dimethyl-7-(3-(7-methylimidazo[1,2-a]pyridin-6-yl)-7,8-dihydro-1,6-naphthyridin-6(5H)-yl)-4H-pyrimido[1,2-b]pyridazin-4-one]
  Emax at 30 µM: 60%
  EC50: 655 nM
